This passage reports pest or weed control results from patent US20230017045A1, “PYRIDINE AND PYRIMIDINE CARBOXYLATE HERBICIDES AND METHODS OF USE THEREOF” (Dow AgroSciences LLC, priority 2017, published 2023).

Molecules are shown by their SMILES. Where two headings read alike, the source gives them in different places.

The assay relates to test plant species. Briefly: Post-emergent herbicidal activity test (greenhouse, foliar spray, visual growth reduction). In kind it is in vivo. The following applies: post-emergence, 336 h, 140 g ai/ha. As for the experimental part: Post-emergent Test: Seeds or nutlets of the desired test plant species were planted in Sun Gro Metro-Mix® 360 planting mixture, which typically has a pH of 6.0 to 6.8 and an organic matter content of about 30 percent, in plastic pots with a surface area of 64 square centimeters. In some aspects, to ensure good germination and healthy plants, a fungicide treatment and/or other chemical or physical treatment was applied. The plants were grown for 7-21 d in a greenhouse with an approximate 15 h photoperiod which was maintained at 23-29° C. during the day and 22-28° C. during the night. Nutrients and water were added on a regular basis and supplemental lighting was provided with overhead metal halide 1000-Watt lamps as necessary. Plants were used for testing when they reached the first or second true leaf stage. A weighed amount, determined by the highest rate to be tested, of each test compound was placed in a 25 mL glass vial and was dissolved in 4 mL of a 97:3 v/v mixture of acetone and DMSO to obtain concentrated stock solutions. […] The concentrated stock solutions obtained were diluted with 20 mL of an aqueous mixture containing acetone, water, isopropyl alcohol, DMSO, […] crop oil concentrate, and X-77 surfactant in a 48.5:39:10:1.5:1.0:0.02 v/v ratio to obtain spray solutions containing the application rate. Compound requirements are based upon a 12 mL application volume at a rate of 187 liters per hectare (L/ha). Formulated compounds were applied to the plant material with an overhead Mandel track sprayer equipped with […] nozzles calibrated to deliver 187 L/ha over an application area of 0.64 square meters at a spray height of 18 inches (43 cm) above the average plant canopy height. Control plants were sprayed in the same manner with the solvent blank. The treated plants and control plants were placed in a greenhouse as described above and watered by subirrigation to prevent wash-off of the test compounds. After 14 d, the condition of the test plants as compared with that of the nontreated and control plants was determined visually and scored on a scale of 0 to 100 percent where 0 corresponds to no injury and 100 corresponds to complete control. In the reporting of the results, Table A: Percent Growth Reduction Conversion Table was used.

Setting [1] is: ALOMY: blackgrass (Alopecurus myosuroides), 14 days after application, read-out: Visual Growth Reduction (%) 14 Days After Application, ALOMY.
Setting [2] is: AMARE: redroot pigweed (Amaranthus retroflexus), 14 days after application, read-out: Visual Growth Reduction (%) 14 Days After Application, AMARE.
The mark [3] stands for this setting: AVEFA: wild oat (Avena fatua), 14 days after application, read-out: Visual Growth Reduction (%) 14 Days After Application, AVEFA.
Setting [4] is: CHEAL: lambsquarters (Chenopodium album), 14 days after application, read-out: Visual Growth Reduction (%) 14 Days After Application, CHEAL.
The mark [5] stands for this setting: CIRAR: canada thistle (Cirsium arvense), 14 days after application, read-out: Visual Growth Reduction (%) 14 Days After Application, CIRAR.
Where [6] appears, read: CYPES: yellow nutsedge (Cyperus esculentus), 14 days after application, read-out: Visual Growth Reduction (%) 14 Days After Application, CYPES.
Where [7] appears, read: DIGSA: crabgrass (Digitaria sanguinalis), 14 days after application, read-out: Visual Growth Reduction (%) 14 Days After Application, DIGSA.
Setting [8] is: barnyardgrass (Echinochloa crus-galli), 14 Days After Application, read-out: Visual Growth Reduction (%) ECHCG.
Where [9] appears, read: common chickweed (Stellaria media), 14 Days After Application, read-out: Visual Growth Reduction (%) STEME.
[10] abbreviates: giant foxtail (Setaria faberi), 14 Days After Application, read-out: Visual Growth Reduction (%) SETFA.
Setting [11] is: ivy-leaf morning glory (Ipomoea hederacea), 14 Days After Application, read-out: Visual Growth Reduction (%) IPOHE.
The mark [12] stands for this setting: johnsongrass (Sorghum vulgare), 14 Days After Application, read-out: Visual Growth Reduction (%) SORVU.
[13] abbreviates: kochia (Bassia scoparia), 14 Days After Application, read-out: Visual Growth Reduction (%) KCHSC.
[14] abbreviates: rice (Oryza sativa), 14 Days After Application, read-out: Visual Growth Reduction (%) ORYSA.
Setting [15] is: wheat, spring (Triticum aestivum), 14 Days After Application, read-out: Visual Growth Reduction (%) TRZAS.

`COC(=O)c1nc(-c2ccc(C(C)O)cc2Cl)ccc1Cl` (centres unmarked) [F1, methyl 3-chloro-6-(2-chloro-4-(1-hydroxyethyl)phenyl)picolinate]: the pest or weed control at 140 g/ha reads like this: under setting [1], 0 to 29%; under setting [2], 0 to 29%; under setting [3], 0 to 29%; under setting [4], 0 to 29%; under setting [5], 0 to 29%; under setting [6], 45 to 59%. The pest or weed control at 140 g/ha is, setting by setting: under setting [7], 0 to 29%; under setting [8], 0 to 29%; under setting [9], 0 to 29%; under setting [10], 0 to 29%; under setting [11], 0 to 29%; under setting [12], 0 to 29%. The pest or weed control at 140 g/ha under setting [13] lay within 0 to 29%, the pest or weed control at 140 g/ha under setting [14] is 0 to 29% and the pest or weed control at 140 g/ha under setting [15] is 0 to 29%.

Take `COC(=O)c1nc(-c2ccc(C(F)(F)F)cc2Cl)ccc1OC` [F2, Methyl 6-(2-chloro-4-4-(trifluoromethyl)phenyl)-3-methoxypicolinate]: the pest or weed control at 140 g/ha by setting is: under setting [1], 0 to 29%; under setting [2], 60 to 74%; under setting [3], 0 to 29%; under setting [4], 0 to 29%; under setting [5], 0 to 29%; under setting [6], 0 to 29%. For the same molecule, the pest or weed control at 140 g/ha is, setting by setting: under setting [7], 85 to 94%; under setting [8], 60 to 74%; under setting [9], 0 to 29%; under setting [10], 30 to 44%; under setting [11], 85 to 94%; under setting [12], 95 to 100%. Besides, the pest or weed control at 140 g/ha was in the range of 0 to 29% under setting [13], 0 to 29% under setting [14] and 45 to 59% under setting [15].

Consider `COC(=O)c1nc(-c2ccc(C(F)(F)F)cc2Cl)c(C#N)cc1Cl` [F3, Methyl 3-chloro-6-(2-chloro-4-(trifluoromethyl)phenyl)-5-cyanopicolinate], for which the pest or weed control at 140 g/ha is, setting by setting: under setting [1], 0 to 29%; under setting [2], 0 to 29%; under setting [3], 0 to 29%; under setting [4], 75 to 84%; under setting [5], 0 to 29%; under setting [6], 0 to 29%. Moreover, the pest or weed control at 140 g/ha is, setting by setting: under setting [7], 60 to 74%; under setting [8], 0 to 29%; under setting [9], 0 to 29%; under setting [10], 0 to 29%; under setting [11], 60 to 74%; under setting [12], 0 to 29%. The pest or weed control at 140 g/ha is, setting by setting: under setting [13], 0 to 29%; under setting [14], 0 to 29%; under setting [15], 0 to 29%.

For `C#Cc1cc(Cl)c(C(=O)OC)nc1-c1ccc(C(F)(F)F)cc1Cl` [F4, Methyl 3-chloro-6-(2-chloro-4-(trifluoromethyl)phenyl)-5-ethynylpicolinate], the pest or weed control at 140 g/ha by setting is: under setting [1], 0 to 29%; under setting [2], 0 to 29%; under setting [3], 0 to 29%; under setting [4], 85 to 94%; under setting [5], 75 to 84%; under setting [6], 0 to 29%. In addition, the pest or weed control at 140 g/ha lay within 0 to 29% under setting [7]; 0 to 29% under setting [8]; 0 to 29% under setting [9]; 0 to 29% under setting [10]; 60 to 74% under setting [11]; 30 to 44% under setting [12]. For the same molecule, the pest or weed control at 140 g/ha under setting [13] fell in the range of 0 to 29%, the pest or weed control at 140 g/ha under setting [14] is 0 to 29% and the pest or weed control at 140 g/ha under setting [15] fell in the range of 0 to 29%.

Consider `COC(=O)c1nc(-c2ccc(C(F)(F)F)cc2Cl)c(C)cc1Cl` [F5], for which the pest or weed control at 140 g/ha is, setting by setting: under setting [1], 0 to 29%; under setting [2], 0 to 29%; under setting [3], 0 to 29%; under setting [4], 45 to 59%; under setting [5], 0 to 29%; under setting [6], 30 to 44%. Also, the pest or weed control at 140 g/ha by setting is: under setting [7], 0 to 29%; under setting [8], 0 to 29%; under setting [10], 0 to 29%; under setting [11], 30 to 44%; under setting [12], 30 to 44%; under setting [13], 30 to 44%. Moreover, the pest or weed control at 140 g/ha under setting [14] lay within 0 to 29% and the pest or weed control at 140 g/ha under setting [15] lay within 0 to 29%.

With `COC(=O)c1nc(-c2ccc(C(F)(F)F)cc2Cl)c(I)cc1Cl` [F6, Methyl 3-chloro-6-(2-chloro-4-(trifluoromethyl)phenyl)-5-iodopicolinate], the pest or weed control at 140 g/ha under setting [1] lay in the range of 0 to 29%; the pest or weed control at 140 g/ha under setting [2] fell in the range of 0 to 29%; the pest or weed control at 140 g/ha under setting [3] was in the range of 0 to 29%; the pest or weed control at 140 g/ha under setting [4] lay within 0 to 29%; the pest or weed control at 140 g/ha under setting [5] was 60 to 74%; the pest or weed control at 140 g/ha under setting [6] lay within 0 to 29%. For the same molecule, the pest or weed control at 140 g/ha by setting is: under setting [7], 0 to 29%; under setting [8], 0 to 29%; under setting [9], 0 to 29%; under setting [10], 0 to 29%; under setting [11], 45 to 59%; under setting [12], 45 to 59%. Moreover, the pest or weed control at 140 g/ha reads like this: under setting [13], 45 to 59%; under setting [14], 0 to 29%; under setting [15], 0 to 29%.

In the case of `COC(=O)c1nc(-c2ccc(C(F)(F)F)cc2Cl)c(SC)cc1Cl` [F7, methyl 3-chloro-6-(2-chloro-4-(trifluoromethyl)phenyl)-5-(methylthio)picolinate], the pest or weed control at 140 g/ha reads like this: under setting [1], 0 to 29%; under setting [2], 0 to 29%; under setting [3], 0 to 29%; under setting [4], 0 to 29%; under setting [5], 0 to 29%; under setting [6], 0 to 29%. Besides, the pest or weed control at 140 g/ha is, setting by setting: under setting [7], 0 to 29%; under setting [8], 0 to 29%; under setting [9], 0 to 29%; under setting [10], 0 to 29%; under setting [11], 0 to 29%; under setting [12], 0 to 29%. The pest or weed control at 140 g/ha is 0 to 29% under setting [13], 0 to 29% under setting [14] and 0 to 29% under setting [15].
